In patent US6333348A, “Use of docetaxel for treating cancers” (Aventis Pharma S.A., priority 2000, dated 2001):

Tests used:
[1] = test system: breast cancer; experiment: Docetaxel alone, several in-house proprietary studies; format: in vivo, human
Protocol: Docetaxel alone, in several in-house proprietary studies, gave overall response rates of 40 to 43% (in second line therapy at a dose of 100 mg/m^2), 48% (in first line therapy at a dose of 75 mg/m^2) and 61% (in first line therapy at a dose of 100 mg/m^2).

[2] = treatments based on taxoid derivatives, including docetaxel; cited from earlier work

Work on `CC(=O)O[C@@]12CO[C@@H]1C[C@H](O)[C@@]1(C)C(=O)[C@H](O)C3=C(C)[C@@H](OC(=O)[C@H](O)[C@@H](NC(=O)OC(C)(C)C)c4ccccc4)C[C@@](O)([C@@H](OC(=O)c4ccccc4)[C@H]21)C3(C)C` [docetaxel] yielded an overall response rate ([1]; first line therapy, 75 mg/m^2) of 48%, an overall response rate ([1]; first line therapy, 100 mg/m^2) of 61% and an overall response rate ([1]; second line therapy, 100 mg/m^2) of 40 to 43%. The toxicities [2] was “myelosuppression, neutropenia, hypersensitivity, peripheral neuropathy, and fluid retention”.
